Data as given in patent publication US11596633B2, “SHP2 inhibitor compositions and methods for treating cancer” (Revolution Medicines, Inc., priority 2017, dated 2023).

Tests used:
Capan-1 = experiment: 3D cell viability (CTG); assay type: cell-based; details: Homo sapiens; Capan-1, KRAS G12V, 3D culture
Description: (§1) To evaluate cell viability in 3D culture, cells in logarithmic growth phase were plated in growth medium containing 0.65% methylcellulose at an optimum seeding density. Cells were incubated overnight prior to treatment with different concentrations of the test article. Cells were cultured for an additional seven days and cell viability assessed using the CellTiterGlo™ (CTG) reagent, according to the manufacturer's instructions. In some instances, cells were grown in 3D culture as spheroids. Briefly, 2500 cells/well were seeded in round bottom ultra-low attachment 96-well plates (Corning) in growth media supplemented with 10% fetal bovine serum and 1% penicillin/streptomycin, and allowed to form spheroids for 72 hours at 37° C. in 5% CO2. […] Following drug exposure for five days, cell viability in spheroids was determined using the CellTiter-Glo assay kit.

LS180 = experiment: 3D cell viability (CTG); assay type: cell-based; details: Homo sapiens; LS180, KRAS G12D, 3D culture
Description: as §1

Calu-1 = experiment: 3D cell viability (CTG); assay type: cell-based; details: Homo sapiens; Calu-1, KRAS G12C, 3D culture
Description: as §1

KYSE-410 = experiment: 3D cell viability (CTG); assay type: cell-based; details: Homo sapiens; KYSE-410, KRAS G12C, 3D culture
Description: as §1

SNU-601 = experiment: 3D cell viability (CTG); assay type: cell-based; details: SNU-601, KRAS G12D, 3D culture
Description: as §1

NCI-H358 = experiment: 3D cell viability (CTG); assay type: cell-based, human; details: 3D culture
Description: as §1

MIAPaCa-2 = experiment: 3D cell viability (CTG); assay type: cell-based; details: Homo sapiens, MIA PaCa-2; MIAPaCa-2, KRAS G12C, 3D culture
Description: as §1

SK-LU-1 = experiment: 3D cell viability (CTG); assay type: cell-based; details: Homo sapiens; SK-LU-1, KRAS G12D, 3D culture
Description: as §1

HCT116 = experiment: 3D cell viability (CTG); assay type: cell-based; details: Homo sapiens, HCT-116; HCT116, KRAS G13D, 3D culture
Description: (§2) To evaluate cell viability in 3D culture, cells in logarithmic growth phase were plated in growth medium containing 0.65% methylcellulose at an optimum seeding density. Cells were incubated overnight prior to treatment with different concentrations of the test article. Cells were cultured for an additional seven days and cell viability assessed using the CellTiterGlo™ (CTG) reagent, according to the manufacturer's instructions. In some instances, cells were grown in 3D culture as spheroids. Briefly, 2500 cells/well were seeded in round bottom ultra-low attachment 96-well plates (Corning) in growth media supplemented with 10% fetal bovine serum and 1% penicillin/streptomycin, and allowed to form spheroids for 72 hours at 37° C. in 5% CO2. […] Following drug exposure for five days, cell viability in spheroids was determined using the CellTiter-Glo assay kit. […] After one day in culture, cells were treated with the test article, which was then replenished every three days. Cells were maintained in culture for 10 days until the control wells reached confluency at which time the cells were fixed and stained with crystal violet.

A549 = experiment: 3D cell viability (CTG); assay type: cell-based; details: Homo sapiens; A549, KRAS G12S, 3D culture
Description: as §1

NCI-H441 = experiment: 3D cell viability (CTG); assay type: cell-based; details: Homo sapiens; NCI-H441, KRAS G12V, 3D culture
Description: as §1

NCI-H2122 = experiment: 3D cell viability (CTG); assay type: cell-based; details: Homo sapiens; NCI-H2122, KRAS G12C, 3D culture
Description: as §1

[1] = system: H1838 NF1 LOF NSCLC cells; experiment: Cell growth, crystal violet stain; assay type: cell-based; details: 10 days
Description: as §2

NCI-H1573 = experiment: 3D cell viability (CTG); assay type: cell-based; details: Homo sapiens; NCI-H1573, KRAS G12A, 3D culture
Description: as §1

SW480 = experiment: 3D cell viability (CTG); assay type: cell-based; details: Homo sapiens; SW480, KRAS G12V, 3D culture
Description: as §2

Nc1nc(N2CCC3(CCC[C@H]3N)CC2)cnc1Sc1ccnc(Cl)c1Cl [Compound A]
IC50 (Capan-1): > 10 µM | IC50 (LS180): > 10 µM | IC50 (Calu-1): > 10 µM | IC50 (KYSE-410): 0.1 µM | IC50 (SNU-601): 2.9 µM | cell viability (NCI-H358; H358 cells): concentration-dependent inhibition | IC50 (NCI-H358; Homo sapiens, NCI-H358, KRAS G12C): 0.1 µM | IC50 (MIAPaCa-2): 0.3 µM | IC50 (SK-LU-1): > 10 µM | IC50 (HCT116): > 10 µM | IC50 (A549): > 10 µM | IC50 (NCI-H441): 0.1 µM | IC50 (NCI-H2122): 5.9 µM | cell growth (crystal violet stain) [1]: potently inhibited | IC50 (NCI-H1573): 0.2 µM | IC50 (SW480): > 10 µM
